# Test results taken from patent US8071777B2, “Compounds derived from artesunate, preparation process, pharmaceutical composition and use of the respective medicine” (Fundação Oswaldo Cruz - FIOCRUZ, priority 2004, dated 2011).
# Several values for one entry are separate records, joined by “and”; a condition that tells them apart may be missing. Identical values can stand only once. Like-named read-outs stand apart in the source and are kept apart here.
# Tests used:
# [1] = system: P. falciparum (W2); experiment: Antimalarial activity in vitro against P. falciparum cultivated in red cells, 72 hours; format: cell-based; conditions: for IC50: Plasmodium falciparum
# Description: The tests in vitro to evaluate the antimalarial activity were carried out with P. falciparum cultivated in red cells in 10% of human serum, in slabs of 96 wells, using Rieckman et al's traditional method, modified by Carvalho et al. Braz J. Med. Biol. Research, 1991. The parasites were incubated for 72 hours in culture medium having samples “A”, “B” and “C” in different dilutions in ideal atmospherical conditions at 37° C.; drugs and the culture medium was changed every 24 hours. After this period, blood samples were collected for evaluation of the activity of each compound. As to control wells with complete culture medium were maintained, but with no addition of drugs, and wells in which chloroquine was present in different tested concentrations in triplicate.
# (§1) Not only in vivo but also in vitro, the activity of drugs was evaluated in relation to the group control without any drugs.
# [2] = system: Plasmodium berghei; experiment: Antimalarial activity in vivo in mice infected with Plasmodium berghei NK 65, oral treatment for 4 days; conditions: for Average parasitaemia (%) ± SD on day 5 / Average parasitaemia (%) ± SD on day 7: 12 mg/kg via oral for 4 days in sequence, mice infected by Plasmodium berghei; for Average parasitaemia (%) ± SD on day 5: day 5 of infection; for Average parasitaemia (%) ± SD on day 7: day 7 of infection; for Cumulative mortality on day 10 of infection / Cumulative mortality on day 19 of infection / Cumulative mortality on day 23 of infection / Cumulative mortality on day 35 of infection / Cumulative mortality on day 48 of infection: 5 mice in each group; for % Inhibition of parasitaemia on day 5: day 5, in relation to the group control not treated; for % Inhibition of parasitaemia on day 7: day 7, in relation to the group control not treated; for Suppression of the acute parasitaemia of treated animals: evaluations on the 5th and 7th day after the infection; for Parasitaemia at late follow-up: negative or recrudescence: new blood samples days 30 to 48
# Description: To evaluate the antimalarial activity the following tests were carried out in different experiments in vivo using groups of Swiss female albino mice, weighing between 18 and 22 g. These mice were innoculated with 100,000 red cells infected with strain NK 65 of Plasmodium berghei (cause of malaria in rodents) according to the scheme previously proposed (Peters et al., Annals of Tropical Medicine and Parasitology, 1993, 87, 547). After inoculating the parasite via intraperitoneal, the animals were divided at random into groups of five. The treatment of the mice were initiated the day after the inoculation, for 4 days in sequence, applying samples “A”, “B” e “C” administered via oral. The different groups of mice, represented by groups treated and not treated (group control) were kept in the same conditions, in polyacetylene cages, water and ration was offered ad libitum. A group was treated with chloroquine, an antimalarial of reference. The development of the infection was verified in all groups through blood samples collected for parasitaemia on the 5th and 7th day after the infection, and the parasitaemia was measured based on double blind tests, in codified slides, in order to minimize occasional bias.
# as §1
# [3] = P. falciparum (W2) in vitro, Experiment 1, approximated
# [4] = P. falciparum (W2) in vitro, Experiment 2, approximated
# [5] = 12 mg/kg via oral for 4 days, day 48
# [6] = W2, read-out: Inhibiting concentration (IC) 50%, Experiment 1
# [7] = W2, read-out: Inhibiting concentration (IC) 50%, Experiment 2
compound,measurement,setting,value
"CC1CCC2C(C)C(OC(=O)CCC(=O)O)OC3OC4(C)CCC1C32OO4.OC(c1cc(C(F)(F)F)nc2c(C(F)(F)F)cccc12)C1CCCCN1 (stereo not drawn) [A, salt of artesunate and mefloquine]","Inhibiting concentration (IC) 40%, Experiment 1",[1]; [3],0.83 ng/mL
same,"Inhibiting concentration (IC) 50%, Experiment 1",[1]; [3],1.03 ng/mL
same,"Inhibiting concentration (IC) 80%, Experiment 1",[1]; [3],1.85 ng/mL
same,"Inhibiting concentration (IC) 95%-100%, Experiment 1",[1]; [3],4.07 ng/mL
same,"Inhibiting concentration (IC) 40%, Experiment 2",[1]; [4],0.46 ng/mL
same,"Inhibiting concentration (IC) 50%, Experiment 2",[1]; [4],0.8 ng/mL
same,"Inhibiting concentration (IC) 80%, Experiment 2",[1]; [4],1.5 ng/mL
same,"Inhibiting concentration (IC) 95%-100%, Experiment 2",[1]; [4],≧5 ng/ml
same,Cure of malaria in treated animals,[2]; 12 mg/kg via oral for 4 days,the cure of malaria was observed
same,Average parasitaemia (%) ± SD on day 5,[2],0%
same,Average parasitaemia (%) ± SD on day 7,[2],0%
same,Cumulative mortality on day 10 of infection,[2]; 12 mg/kg via oral for 4 days,0
same,Cumulative mortality on day 19 of infection,[2]; 12 mg/kg via oral for 4 days,0
same,Cumulative mortality on day 23 of infection,[2]; 12 mg/kg via oral for 4 days,0
same,Cumulative mortality on day 35 of infection,[2]; 12 mg/kg via oral for 4 days,0
same,Cumulative mortality on day 48 of infection,[2]; [5],0
same,% Inhibition of parasitaemia on day 5,[2]; 12 mg/kg via oral for 4 days,(100%)
same,% Inhibition of parasitaemia on day 7,[2]; 12 mg/kg via oral for 4 days,(100%)
same,Suppression of the acute parasitaemia of treated animals,[2]; 12 mg/kg via oral,100%
same,Parasitaemia at late follow-up: negative or recrudescence,[2]; 12 mg/kg via oral,remained negative
"C[C@H]1[C@H](OC(=O)CCC(=O)O)O[C@@H]2O[C@@]3(C)CC[C@H]4[C@H](C)CC[C@@H]1[C@@]24OO3 [B, artesunate]","Inhibiting concentration (IC) 40%, Experiment 1",[1]; [3],0.37 ng/mL
same,"Inhibiting concentration (IC) 80%, Experiment 1",[1]; [3],0.99 ng/mL
same,"Inhibiting concentration (IC) 95%-100%, Experiment 1",[1]; [3],1.54 ng/mL
same,"Inhibiting concentration (IC) 40%, Experiment 2",[1]; [4],0.33 ng/mL
same,"Inhibiting concentration (IC) 80%, Experiment 2",[1]; [4],1.3 ng/mL
same,"Inhibiting concentration (IC) 95%-100%, Experiment 2",[1]; [4],≧5 ng/ml
same,IC50,[1]; [6],0.46 ng/mL
same,IC50,[1]; [7],0.43 ng/mL
same,Average parasitaemia (%) ± SD on day 5,[2],0%
same,Average parasitaemia (%) ± SD on day 7,[2],0%
same,Cumulative mortality on day 10 of infection,[2]; 12 mg/kg via oral for 4 days,0
same,Cumulative mortality on day 19 of infection,[2]; 12 mg/kg via oral for 4 days,0
same,Cumulative mortality on day 23 of infection,[2]; 12 mg/kg via oral for 4 days,1
same,Cumulative mortality on day 35 of infection,[2]; 12 mg/kg via oral for 4 days,2
same,Cumulative mortality on day 48 of infection,[2]; [5],3
same,% Inhibition of parasitaemia on day 5,[2]; 12 mg/kg via oral for 4 days,(100%)
same,% Inhibition of parasitaemia on day 7,[2]; 12 mg/kg via oral for 4 days,(100%)
same,Suppression of the acute parasitaemia of treated animals,[2]; 12 mg/kg via oral,100%
same,Mortality during follow-up of treatment,"[2]; 12 mg/kg via oral, follow-up of about 30 days",mortality occurred
same,Parasitaemia at late follow-up: negative or recrudescence,[2]; 12 mg/kg via oral,showed recrudescency of the parasitaemia
same,"% parasitaemia, Average ± Sd, day 30","[2]; 12 mg/kg, group average, day 30",16.6 ± 20.4%
same,"% parasitaemia, Average ± Sd, day 33","[2]; 12 mg/kg, group average, day 33",23.3 ± 24.3%
same,"% parasitaemia, Average ± Sd, day 36","[2]; 12 mg/kg, group average, day 36",33.5 ± 27.4%
same,"% parasitaemia, Average ± Sd, day 48","[2]; 12 mg/kg, group average, day 48",30 ± 21.2%
same,% Individual parasitaemia on day 30 (recrudescence),"[2]; 12 mg/kg, individual animals infected by P. berghei, day 30, † = Animal death",0.6% and 24% and 0% and 42%
same,% Individual parasitaemia on day 33 (recrudescence),"[2]; 12 mg/kg, individual animals infected by P. berghei, day 33, † = Animal death",5% and 40% and 0% and 48%
same,% Individual parasitaemia on day 36 (recrudescence),"[2]; 12 mg/kg, individual animals infected by P. berghei, day 36, † = Animal death",14% and 53% and 0%
same,% Individual parasitaemia on day 48 (recrudescence),"[2]; 12 mg/kg, individual animals infected by P. berghei, day 48, † = Animal death",30% and 0%
"OC(c1cc(C(F)(F)F)nc2c(C(F)(F)F)cccc12)C1CCCCN1 (stereo not drawn) [C, mefloquine]","Inhibiting concentration (IC) 40%, Experiment 1",[1]; [3],0.93 ng/mL
same,"Inhibiting concentration (IC) 80%, Experiment 1",[1]; [3],12.9 ng/mL
same,"Inhibiting concentration (IC) 95%-100%, Experiment 1",[1]; [3],≧50 ng/ml
same,"Inhibiting concentration (IC) 40%, Experiment 2",[1]; [4],2.8 ng/mL
same,"Inhibiting concentration (IC) 80%, Experiment 2",[1]; [4],≧5 ng/ml
same,"Inhibiting concentration (IC) 95%-100%, Experiment 2",[1]; [4],≧5 ng/ml
same,IC50,"[1]; P. falciparum (W2) in vitro, Experiment 1, approximated, read-out: Inhibiting concentration (IC) 50%, Experiment 1",1.24 ng/mL
same,IC50,"[1]; P. falciparum (W2) in vitro, Experiment 2, approximated, read-out: Inhibiting concentration (IC) 50%, Experiment 2",3.4 ng/mL
same,Average parasitaemia (%) ± SD on day 5,[2],0%
same,Average parasitaemia (%) ± SD on day 7,[2],0%
same,Cumulative mortality on day 10 of infection,[2]; 12 mg/kg via oral for 4 days,0
same,Cumulative mortality on day 19 of infection,[2]; 12 mg/kg via oral for 4 days,0
same,Cumulative mortality on day 23 of infection,[2]; 12 mg/kg via oral for 4 days,0
same,Cumulative mortality on day 35 of infection,[2]; 12 mg/kg via oral for 4 days,0
same,Cumulative mortality on day 48 of infection,[2]; [5],0
same,% Inhibition of parasitaemia on day 5,[2]; 12 mg/kg via oral for 4 days,(100%)
same,% Inhibition of parasitaemia on day 7,[2]; 12 mg/kg via oral for 4 days,(100%)
same,Suppression of the acute parasitaemia of treated animals,[2]; 12 mg/kg via oral,100%
same,Parasitaemia at late follow-up: negative or recrudescence,[2]; 12 mg/kg via oral,remained negative
"CCN(CC)CCCC(C)Nc1ccnc2cc(Cl)ccc12 (stereo not drawn) [QC, chloroquine]","Inhibiting concentration (IC) 40%, Experiment 1",[1]; [3],41.1 ng/mL
same,"Inhibiting concentration (IC) 80%, Experiment 1",[1]; [3],82.3 ng/mL
same,"Inhibiting concentration (IC) 95%-100%, Experiment 1",[1]; [3],277.7 ng/mL
same,"Inhibiting concentration (IC) 40%, Experiment 2",[1]; [4],48.2 ng/mL
same,"Inhibiting concentration (IC) 80%, Experiment 2",[1]; [4],133.4 ng/mL
same,"Inhibiting concentration (IC) 95%-100%, Experiment 2",[1]; [4],≧200 ng/ml
same,IC50,[1]; [6],51.3 ng/mL
same,IC50,[1]; [7],55.5 ng/mL
